Laboratory results taken from paper PMC5803267, “A small molecule inhibitor of Rheb selectively targets mTORC1 signaling” (Nature Communications, 2018).

Experiments:
[1] = Pharmacokinetic profile in mouse plasma; type: in vivo
Experimental: The selective inhibition of mTORC1 activation by NR1 in vitro and in cell-based systems prompted us to evaluate the effect of this compound on mTORC1 activity in vivo. […] In particular, the plasma concentration of NR1 was sustained over 5 µM for 2 h after IP administration of a 30 mg kg^−1 dose (Supplementary Fig. 10). We therefore carried out a pharmacodynamic (PD) study to evaluate the efficacy of NR1 at inhibiting mTORC1 signaling in vivo. In this experiment, mice were starved overnight to achieve a low basal level of mTORC1 activation (pre-dose). After a 16 h fast, the animals were treated with either vehicle or 30 mg kg^−1 NR1 and allowed to re-feed for 2 h before sacrifice and tissue collection. mTORC1 activity was measured by quantification of ^S240/244pS6 by Western blot analysis with a specific antibody. We chose kidney and gastrocnemius muscle as target tissues due to the relevance of mTORC1 in renal cell carcinoma[51] and angiomyolipomas in TSC and LAM[12] and for its important role in the regulation of protein synthesis and muscle mass[52]. The results are summarized in Fig. 6 for skeletal muscle and Supplementary Fig. 11 for kidney.
This study was conducted in accordance with the requirements for the humane care and use of animals set forth in the Animal Welfare Act, the IACUC Guide for the Care and Use of Laboratory Animals, applicable Shanghai and state laws, and regulations and policies of Shanghai ChemPartner Ltd. The animals were not randomized, and the study was not blinded. Male C57BL/6 mice (5 per treatment group, 6–7 weeks old) were fasted of food overnight for 16 hours. IP injection of compound dissolved in MC Tween (0.5% methyl cellulose and 0.1% Tween-80 in water) was given, and then the mice were allowed to feed again ad libitum until sacrifice. The animals were euthanized with CO2. Compound levels in the plasma of treated mice were measured by LC-MS/MS and compared to a standard curve of compound diluted into mouse plasma.
Supplementary Figure 10. Pharmacokinetic profile of NR1 in mouse plasma after a single 30
mg/Kg (body weight) intraperitoneal dose. The dotted line corresponds to 5 µM concentration. Error
bars represent standard deviation of the mean values for n=3 mice.

[2] = biological target: T1, FLAG-Rheb / myc-mTOR interaction (Homo sapiens, UniProt Q15382); experiment: Co-immunoprecipitation of overexpressed FLAG-Rheb and myc-mTOR; type: cell-based; conditions: review-only material
T1 construct: expressed in transfected cells
T1 sequence (Q15382 1-181 limits assumed): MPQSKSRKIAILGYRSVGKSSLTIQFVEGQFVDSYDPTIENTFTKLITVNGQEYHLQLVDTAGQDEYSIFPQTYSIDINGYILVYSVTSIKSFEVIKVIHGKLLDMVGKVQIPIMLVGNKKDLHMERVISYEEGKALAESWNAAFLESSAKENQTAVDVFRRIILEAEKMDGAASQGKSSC
Description: Response: We agree with Reviewer 2 and have included a brief discussion on the potential effects of chronic Rheb inhibition in the discussion section (p. 25).
“As with any new pharmacological agent, the anticipated side effects will need to be considered. The only data available from the literature that may help in understanding the potential side-effects of reducing Rheb activity come from genetic knock-out studies which, because of their inherent impacts on developmental and other effects, cannot be directly related to what might be expected following pharmacological inhibition. Thus, careful development of a novel Rheb inhibitor would have to take into account the potential organ systems that may be impacted, such as neurological63, 64 and […]
Below is a list of concerns that would need to be addressed in order for this work to be considered for publication in Nature Communications.
1. The authors state that it is “conceivable that portions of NR1 positioned outside the Rheb binding pocket sterically block the interaction with mTORC1. Given that the authors have access to recombinant Rheb and mTOR protein, it is unclear why there is no direct evidence that NR1 can inhibit their interaction. Alternatively, the effects of NR1 on Rheb-mTOR interactions could be shown in cells through co-IP. […]

Jurkat cells = experiment: Cell size assay in Jurkat cells (forward scatter, flow cytometry); type: cell-based, human; conditions: 48 h incubation, dose-dependent
Experimental: Based on the dependence of cell size on mTORC1 activity, we assessed the effect of NR1 on the size of Jurkat cells, a human T cell line grown in suspension and responsive to mTORC1 inhibition.
Data are plotted as percent decrease in forward scatter. […] Error bars represent standard deviation of the mean of duplicates; graph represents data from one of two separate experiments
For the cell size assay, Jurkat Clone E-61 cells were plated in 96-well plates concurrent with compound. The cells were incubated at 37 °C and 5% CO2 for 48 h. PI stain (Invitrogen #727949) was added at a final concentration of 1 µg mL^−1, and cells were incubated for 15 min at room temperature. FACS analysis was performed; at least 10,000 events were collected for each sample. Viable cells (PI minus) were counted for FSC and SSC, and cell size (as measured by FSC) relative to the DMSO control was calculated.

[3] = ip, mouse plasma, single 30 mg/Kg intraperitoneal dose

SMILES: CN(C)C(=O)c1ccc(Cn2c(C(=O)O)cc3c(Br)cc(Sc4ccc(Cl)c(Cl)c4)cc32)cc1 [NR1, 4-bromo-6-(3,4-dichlorophenylthio)-1-(4-(dimethylcarbamoyl)benzyl)-1H-indole-2-carboxylic acid]
- AUC(0-inf) [1, 3]: 23500 ng·h/mL
- AUC(0-t) [1, 3]: 23500 ng·h/mL
- Cmax [1, 3]: 7800 ng/mL
- Tmax [1, 3]: 0.25 h
- half-life ([1]; ip, mouse plasma, single 30 mg/Kg intraperitoneal dose, read-out: Terminal t1/2 (converted)): 2.24 h
- plasma concentration sustained for 2 h ([1]; mouse, IP, 30 mg kg^−1): over 5 µM
- Rheb-mTOR interaction [2]: does not modulate
- size of Jurkat cells (Jurkat cells): effectively reduced the size
